Values joined by “and” are separate entries in the source; they are usually repeats but may differ in a detail not shown here. Equal values may be shown once. Inconclusive results and toxic doses are left out.
Tested on: P388 leukemia ip, CD2F1 mice, survival T/C
Assay: NCI In Vivo Anticancer Drug Screen. Data for tumor model P388 Leukemia (intraperitoneal) in CD2F1 (CDF1) mice
Details: endpoint: median survival time, higher = longer survival
Procedure, shortened: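 Mice carrying the transplanted tumor received test compound or vehicle. Survival was recorded in each group, and the value is the treated-group measurement divided by that of the vehicle-treated control group.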

[1] = dose: 60.0 mg/kg/injection, schedule: Q01DX005 (ip), vehicle: Klucel (hydroxypropylcellulose) (HPC)
[2] = dose: 120.0 mg/kg/injection, schedule: Q01DX005 (ip), vehicle: Klucel (hydroxypropylcellulose) (HPC)
[3] = dose: 240.0 mg/kg/injection, schedule: Q01DX005 (ip), vehicle: Klucel (hydroxypropylcellulose) (HPC)
[4] = dose: 50.0 mg/kg/injection, schedule: Q01DX005 (ip), vehicle: saline
[5] = dose: 100.0 mg/kg/injection, schedule: Q01DX005 (ip), vehicle: saline
[6] = dose: 200.0 mg/kg/injection, schedule: Q01DX005 (ip), vehicle: saline
[7] = dose: 6.25 mg/kg/injection, schedule: Q01DX009 (ip), vehicle: saline with Tween-80
[8] = dose: 12.5 mg/kg/injection, schedule: Q01DX009 (ip), vehicle: saline with Tween-80
[9] = dose: 25.0 mg/kg/injection, schedule: Q01DX009 (ip), vehicle: saline with Tween-80
[10] = dose: 100.0 mg/kg/injection, schedule: Q01DX009 (ip), vehicle: saline with Tween-80
[11] = dose: 200.0 mg/kg/injection, schedule: Q01DX009 (ip), vehicle: saline with Tween-80
[12] = dose: 50.0 mg/kg/injection, schedule: Q01DX009 (ip), vehicle: Klucel (hydroxypropylcellulose) (HPC)
[13] = dose: 100.0 mg/kg/injection, schedule: Q01DX009 (ip), vehicle: Klucel (hydroxypropylcellulose) (HPC)
[14] = dose: 60.0 mg/kg/injection, schedule: Q01DX005 (ip), vehicle: saline with Tween-80
[15] = dose: 120.0 mg/kg/injection, schedule: Q01DX005 (ip), vehicle: saline with Tween-80
[16] = dose: 240.0 mg/kg/injection, schedule: Q01DX005 (ip), vehicle: saline with Tween-80

CN(C)CCCCCC[N+](C)(C)Cc1ccc(C[N+](C)(C)CCCCCC[N+](C)(C)Cc2ccc(CCl)cc2)cc1
T/C (dose: 3.12 mg/kg/injection, schedule: Q04DX003 (ip), vehicle: saline): 108 % of control
T/C (dose: 6.25 mg/kg/injection, schedule: Q04DX003 (ip), vehicle: saline): 106 % of control
T/C (dose: 12.5 mg/kg/injection, schedule: Q04DX003 (ip), vehicle: saline): 97 % of control

COC(=O)C(CCC1NCCc2c1[nH]c1ccccc21)(Sc1ccccc1)Sc1ccccc1 (centres undefined)
T/C [1]: 108 % of control
T/C [2]: 105 % of control
T/C [3]: 103 % of control

CC(=O)SSC(C)(C)C
T/C [4]: 105 % of control
T/C [5]: 114 % of control
T/C [6]: 103 % of control

Cc1cccc2c(=O)n3c(cc12)-c1[nH]c2ccccc2c1CC3
T/C [1]: 103 % of control
T/C [2]: 97 % of control
T/C [3]: 96 % of control

COC1OC2COC(c3ccccc3)OC2C(OS(=O)(=O)c2ccc(C)cc2)C1OS(=O)(=O)c1ccc(C)cc1 (centres undefined)
T/C [7]: 114 % of control
T/C [8]: 114 % of control
T/C [9]: 108 % of control and 111 % of control
T/C [10]: 87 % of control
T/C [11]: 91 % of control

CC1OCOC(CO)C(O)C1O (centres undefined)
T/C [4]: 101 % of control
T/C [5]: 105 % of control
T/C [6]: 105 % of control

CC(C)CSC(C)C
T/C (dose: 50.0 mg/kg/injection, schedule: Q04DX003 (ip), vehicle: saline with Tween-80): 100 % of control
T/C (dose: 100.0 mg/kg/injection, schedule: Q04DX003 (ip), vehicle: saline with Tween-80): 104 % of control
T/C (dose: 200.0 mg/kg/injection, schedule: Q04DX003 (ip), vehicle: saline with Tween-80): 100 % of control

O=C1OC[C@@H]2C=CC[C@H]12
T/C [4]: 100 % of control
T/C [5]: 100 % of control
T/C [6]: 107 % of control

O=S1(=O)OC(c2ccc(O)c(O)c2)(c2ccc(O)c(O)c2)c2ccccc21
T/C (dose: 100.0 mg/kg/injection, schedule: Q01DX009 (ip), vehicle: saline): 100 % of control and 98 % of control

CSc1c2ccncc2c(C)c2c1[nH]c1ccccc12
T/C (dose: 6.25 mg/kg/injection, schedule: Q04DX002 (ip), vehicle: distilled water + Tween-80): 95 % of control
T/C (dose: 12.5 mg/kg/injection, schedule: Q04DX002 (ip), vehicle: distilled water + Tween-80): 94 % of control
T/C (dose: 25.0 mg/kg/injection, schedule: Q04DX002 (ip), vehicle: distilled water + Tween-80): 88 % of control
T/C (dose: 50.0 mg/kg/injection, schedule: Q04DX002 (ip), vehicle: distilled water + Tween-80): 89 % of control
T/C (dose: 100.0 mg/kg/injection, schedule: Q04DX002 (ip), vehicle: distilled water + Tween-80): 95 % of control
T/C (dose: 200.0 mg/kg/injection, schedule: Q04DX002 (ip), vehicle: distilled water + Tween-80): 98 % of control

CN1/C(=C/C=C/C(I)=C/C=C/C2=[N+](C)c3ccccc3C2(C)C)C(C)(C)c2ccccc21
T/C (dose: 3.13 mg/kg/injection, schedule: Q01DX009 (ip), vehicle: saline with Tween-80): 121 % of control
T/C [7]: 123 % of control
T/C [8]: 120 % of control
T/C [9]: 124 % of control

c1ccc(-c2cn3ccsc3n2)cc1
T/C (dose: 25.0 mg/kg/injection, schedule: Q01DX009 (ip), vehicle: other): 109 % of control
T/C (dose: 50.0 mg/kg/injection, schedule: Q01DX009 (ip), vehicle: other): 115 % of control
T/C (dose: 100.0 mg/kg/injection, schedule: Q01DX009 (ip), vehicle: other): 115 % of control
T/C (dose: 200.0 mg/kg/injection, schedule: Q01DX009 (ip), vehicle: other): 115 % of control

CC(C)NC(=O)OCC#CCOC(=O)NC(C)C
T/C (dose: 50.0 mg/kg/injection, schedule: Q01DX005 (ip), vehicle: saline with Tween-80): 98 % of control
T/C (dose: 100.0 mg/kg/injection, schedule: Q01DX005 (ip), vehicle: saline with Tween-80): 90 % of control
T/C (dose: 200.0 mg/kg/injection, schedule: Q01DX005 (ip), vehicle: saline with Tween-80): 90 % of control

CC(=O)c1ccc(N=NN(C)c2ccc(C(C)=O)cc2)cc1
T/C (dose: 50.0 mg/kg/injection, schedule: Q01DX009 (ip), vehicle: saline with Tween-80): 108 % of control
T/C [10]: 107 % of control
T/C [11]: 101 % of control

CSC(=S)n1nc(-c2ccccc2)c(N=Nc2cccc(Cl)c2)c1-c1ccccc1
T/C (dose: 100.0 mg/kg/injection, schedule: Q04DX002 (ip), vehicle: saline with Tween-80): 107 % of control
T/C (dose: 200.0 mg/kg/injection, schedule: Q04DX002 (ip), vehicle: saline with Tween-80): 104 % of control
T/C (dose: 400.0 mg/kg/injection, schedule: Q04DX002 (ip), vehicle: saline with Tween-80): 119 % of control

Clc1nnc(Cl)c(Cl)c1Cl
T/C (dose: 0.1 mg/kg/injection, schedule: Q01DX009 (ip), vehicle: saline with Tween-80): 100 % of control
T/C (dose: 0.1 mg/kg/injection, schedule: Q04DX003 (ip), vehicle: saline with Tween-80): 100 % of control
T/C (dose: 0.2 mg/kg/injection, schedule: Q01DX009 (ip), vehicle: saline with Tween-80): 95 % of control
T/C (dose: 0.2 mg/kg/injection, schedule: Q04DX003 (ip), vehicle: saline with Tween-80): 100 % of control
T/C (dose: 0.38 mg/kg/injection, schedule: Q04DX003 (ip), vehicle: saline with Tween-80): 90 % of control
T/C (dose: 0.4 mg/kg/injection, schedule: Q04DX003 (ip), vehicle: saline with Tween-80): 100 % of control

CSC(=Nc1ccc(C)c(Cl)c1)NC#N
T/C [12]: 98 % of control
T/C [13]: 91 % of control
T/C (dose: 200.0 mg/kg/injection, schedule: Q01DX009 (ip), vehicle: Klucel (hydroxypropylcellulose) (HPC)): 92 % of control

Cc1cc2[nH]c3c(C#N)c(O)c(C(C)C)c(=O)n3c2cc1C
T/C [14]: 103 % of control
T/C [15]: 100 % of control
T/C [16]: 94 % of control

NC(=O)c1cncc(CCC(O)C(=O)O)c1 (centres undefined)
T/C (dose: 25.0 mg/kg/injection, schedule: Q04DX003 (ip), vehicle: Klucel (hydroxypropylcellulose) (HPC)): 96 % of control
T/C (dose: 50.0 mg/kg/injection, schedule: Q04DX003 (ip), vehicle: Klucel (hydroxypropylcellulose) (HPC)): 91 % of control
T/C (dose: 100.0 mg/kg/injection, schedule: Q04DX003 (ip), vehicle: Klucel (hydroxypropylcellulose) (HPC)): 100 % of control

[O-][n+]1cscc1-c1nc2ccccc2[nH]1
T/C (dose: 50.0 mg/kg/injection, schedule: Q01DX005 (ip), vehicle: Klucel (hydroxypropylcellulose) (HPC)): 100 % of control
T/C (dose: 100.0 mg/kg/injection, schedule: Q01DX005 (ip), vehicle: Klucel (hydroxypropylcellulose) (HPC)): 98 % of control
T/C (dose: 200.0 mg/kg/injection, schedule: Q01DX005 (ip), vehicle: Klucel (hydroxypropylcellulose) (HPC)): 102 % of control

CCOC(=O)/N=C1\SC2(CC(C)=C(C)CS2=O)C(O)=C1C(=O)OCC (centres undefined)
T/C [14]: 101 % of control
T/C [15]: 100 % of control
T/C [16]: 101 % of control

CCCCCCCCCCS(=O)CC(CO)NC(=O)/C=C/c1c(C)[nH]c(=O)[nH]c1=O (centres undefined)
T/C (dose: 0.78 mg/kg/injection, schedule: Q01DX009 (ip), vehicle: other): 107 % of control and 116 % of control
T/C (dose: 1.56 mg/kg/injection, schedule: Q01DX009 (ip), vehicle: other): 115 % of control
T/C (dose: 6.25 mg/kg/injection, schedule: Q01DX009 (ip), vehicle: other): 153 % of control

Nc1ncnc(Nc2ccc(C(F)(F)F)cc2)n1
T/C (dose: 12.5 mg/kg/injection, schedule: Q01DX009 (ip), vehicle: Klucel (hydroxypropylcellulose) (HPC)): 118 % of control
T/C (dose: 25.0 mg/kg/injection, schedule: Q01DX009 (ip), vehicle: Klucel (hydroxypropylcellulose) (HPC)): 107 % of control
T/C [12]: 93 % of control
T/C [13]: 87 % of control

Cc1c(C(=O)CC2OC(=O)C(Cl)=C2Cl)c2ccccc2n1C(=O)Nc1ccc(Cl)cc1 (centres undefined)
T/C [14]: 93 % of control
T/C [15]: 99 % of control
T/C [16]: 94 % of control

O=C1CCC(=O)N1CCCN1CCOCC1
T/C (dose: 60.0 mg/kg/injection, schedule: Q01DX005 (ip), vehicle: saline): 89 % of control
T/C (dose: 120.0 mg/kg/injection, schedule: Q01DX005 (ip), vehicle: saline): 88 % of control
T/C (dose: 240.0 mg/kg/injection, schedule: Q01DX005 (ip), vehicle: saline): 99 % of control

From PubChem BioAssay AID330 (DTP/NCI, 2004)
